Test results published in ChEMBL document CHEMBL4266014, “Development of Hybrid Phospholipid Mimics as Effective Agonists for Liver Receptor Homologue-1” (ACS Med Chem Lett, 2018).
The source made the active and inactive calls. No cut-off for these calls is given here.

biological target: Nuclear receptor subfamily 5 group A member 2 (Homo sapiens) (UniProt O00482); experiment: Agonist activity at recombinant full length human LRH1 expressed in HeLa cells up to 30 uM after 24 hrs by dual-glo luciferase reporter gene assay; type: cell-based
Sequence (O00482 whole entry): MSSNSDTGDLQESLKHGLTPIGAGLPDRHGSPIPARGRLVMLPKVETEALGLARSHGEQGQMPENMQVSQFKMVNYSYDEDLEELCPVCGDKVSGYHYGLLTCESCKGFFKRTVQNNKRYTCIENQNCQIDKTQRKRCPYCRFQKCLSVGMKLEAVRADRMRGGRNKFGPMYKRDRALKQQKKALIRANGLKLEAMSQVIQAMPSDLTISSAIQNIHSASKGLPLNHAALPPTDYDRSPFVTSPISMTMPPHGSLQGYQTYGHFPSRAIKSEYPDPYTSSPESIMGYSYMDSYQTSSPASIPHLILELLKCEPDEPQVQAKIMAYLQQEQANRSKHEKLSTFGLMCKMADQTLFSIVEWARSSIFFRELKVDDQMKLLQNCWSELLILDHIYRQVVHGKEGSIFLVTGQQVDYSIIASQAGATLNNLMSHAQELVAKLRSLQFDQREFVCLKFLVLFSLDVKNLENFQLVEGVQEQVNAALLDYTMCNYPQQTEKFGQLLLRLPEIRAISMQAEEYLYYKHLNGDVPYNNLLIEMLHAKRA

SMILES | Activity
C=C(c1ccccc1)[C@@]12CC[C@@H](O)[C@@H]1CC(CCCCCC(=O)O)=C2c1ccccc1 (relative stereo) | inactive
C=C(c1ccccc1)[C@@]12CC[C@@H](O)[C@@H]1CC(CCCCCCC(=O)O)=C2c1ccccc1 (relative stereo) | inactive
C=C(c1ccccc1)[C@@]12CC[C@@H](O)[C@@H]1CC(CCCCCCCCOP(=O)([O-])OCC[N+](C)(C)C)=C2c1ccccc1 | inactive
C=C(c1ccccc1)[C@@]12CC[C@@H](O)[C@@H]1CC(CCCCCCCOP(=O)([O-])OCC[N+](C)(C)C)=C2c1ccccc1 | inactive
C=C(c1ccccc1)[C@@]12CC[C@@H](O)[C@@H]1CC(CCCCC(=O)O)=C2c1ccccc1 | inactive
C=C(c1ccccc1)[C@@]12CC[C@@H](O)[C@@H]1CC(CCCC(=O)O)=C2c1ccccc1 (relative stereo) | inactive
C=C(c1ccccc1)[C@@]12CC[C@@H](O)[C@@H]1CC(CCCCCCOP(=O)([O-])OCC[N+](C)(C)C)=C2c1ccccc1 | inactive
